≈ marks a conversion by molar mass, not a printed value. Where two headings read alike, the source gives them in different places.
Columns and labels:
[1] = tested on: HEK-293 cells; assay: Cell growth inhibition assay (MTT), non-tumorigenic cells; type: cell-based, human; conditions: Homo sapiens, HEK293, 72 h after drug exposure, non-tumorigenic cell line
Experimental: (§1) The cell lines were obtained from ATTC (Manassas, VA, USA). HeLa (human cervix epithelioid carcinoma), MCF7 (human breast adenocarcinoma), HepG2 (human hepatocellular carcinoma), U87 MG (human glioblastoma), T98G (human glioblastoma), GL261 (murine glioma), LNCaP (human prostate cancer), PC-3 (human prostate cancer), and HEK-293 (human embryonic kidney) were grown in Dulbecco’s modified Eagle’s medium (DMEM, Gibco, Waltham, MA, USA), supplemented with 10% (v/v) heat-inactivated fetal bovine serum (HIFBS, Sigma-Aldrich, St. Louis, MO, USA)), 2 mM L-glutamine, 100 μg/mL streptomycin, and 100 units/mL penicillin (Gibco, Waltham, MA, USA) at 37 °C in saturated humidity atmosphere containing 95% air and 5% CO2. Cell line HT-29 (human colon carcinoma) was grown in Roswell Park Memorial Institute (RPMI) 1640 medium (Gibco, Whaltman, MA, USA) supplemented with 10% HIFBS, 100 μg/mL streptomycin, and 100 units/mL penicillin (Gibco, Whaltman, MA, USA) at 37 °C in humidified 95% air and 5% CO2 atmosphere. MycoAlert kit (Lonza, Norwest, Australia) was used to routinely check the presence of mycoplasma, and only mycoplasma-free cells were employed in the experiments.
(§2) Cells were plated in 96-well plates (100 µL/well) at the following concentrations: 30,000 cells/mL (HepG2, U87 MG, T98G, C6, LNCaP, PC3, and HT-29 cells) or 15,000 cells/mL (HeLa and MCF-7 cells). Previous experiments were performed to choose the optimal cell concentration (70–80% confluence) and avoid the formation of cell aggregates. Cells were incubated in complete DMEM or RPMI 1640 medium (see above) at 37 °C and 5% CO2 atmosphere for 24 h to allow for cell attachment to the plate. Then, every compound was added (10 µL/well) to a final concentration of 10 µM. Non-treated cells were used as negative controls. The antiproliferative activity of compounds was measured 72 h after the treatments using the MTT reagent (3-[4,5-dimethylthiazol-2-yl]-2,5-diphenyltetrazolium bromide), (MTT Thiazolyl Blue Tetrazolium Bromide, Sigma-Aldrich, St. Louis, MO, USA) dissolved in PBS at 5 mg/mL. Compounds showing antiproliferative effects at 10 µM were selected to determine their IC50 value. For that purpose, compounds were used at different concentrations ranging from 10^−10 to 10^−2 M. Measurements were performed in triplicate, and each experiment was repeated three times. The IC50 value was determined for every compound using Origin software (OriginLab, Washington, USA). To study the sensitivity to MDR efflux pumps of compounds, the IC50 values were determined by following the same procedure but in the presence of verapamil (final concentration of 10 µM).

[2] = tested on: tumor cell lines; assay: Cell growth inhibition assay (MTT), summary statements over several cell lines; type: cell-based; conditions: read-out: antiproliferative IC50
Experimental: as §2

[3] = tested on: GL261 cells; assay: Cell growth inhibition assay (MTT); type: cell-based, murine; conditions: Mus musculus, GL261, 72 h after drug exposure
Experimental: as §1, §2

[4] = Aqueous solubility, shake-flask method; type: physicochemical; conditions: pH 7.0 buffer, pH 7, aqueous buffer, thermodynamic from solid, shaking flask, buffered media at pH 7.0, mean of three
Experimental: The aqueous solubility of compounds was measured in a Helios Alfa Spectrophotometer. Calibration lines at the maximum wavelength of absorbance were determined for each compound. Then, following the shake-flask method, a suspension of 5 mg of each compound in 500 µL in pH 7.0 buffer was stirred for 72 h at room temperature. The mixture was then filtrated over a […] filter to remove the insoluble fraction. The concentration of the compound in the resulting saturated solution was determined via UV absorbance measurement and interpolation in the calibration line. The aqueous solubility values are given as the average of three independent measurements.

[5] = tested on: MCF7 cells; assay: Cell growth inhibition assay (MTT); type: cell-based, human; conditions: Homo sapiens, MCF7; MTT, 72 h after drug exposure
Experimental: as §1, §2

[6] = tested on: T98G cells; assay: Cell growth inhibition assay (MTT); type: cell-based, human; conditions: Homo sapiens, T98G, 72 h after drug exposure
Experimental: as §1, §2

[7] = tested on: U87MG cells; assay: Cell growth inhibition assay (MTT); type: cell-based, human; conditions: Homo sapiens, U-87 MG; MTT, 72 h after drug exposure
Experimental: as §1, §2

[8] = tested on: PC-3 cells; assay: Cell growth inhibition assay (MTT); type: cell-based, human; conditions: Homo sapiens, PC-3, 72 h after drug exposure
Experimental: as §1, §2

[9] = tested on: LNCaP cells; assay: Cell growth inhibition assay (MTT); type: cell-based, human; conditions: Homo sapiens, LNCaP, 72 h after drug exposure
Experimental: as §1, §2

[10] = tested on: HT-29 cells; assay: Cell growth inhibition assay (MTT); type: cell-based, human; conditions: Homo sapiens, HT-29, 72 h after drug exposure
Experimental: as §1, §2

[11] = tested on: HepG2 cells; assay: Cell growth inhibition assay (MTT); type: cell-based, human; conditions: Homo sapiens, HepG2, 72 h after drug exposure
Experimental: as §1, §2

[12] = tested on: HeLa cells; assay: Cell growth inhibition assay (MTT); type: cell-based, human; conditions: Homo sapiens, HeLa, 72 h after drug exposure
Experimental: as §1, §2

[13] = tested on: HT-29 cells; assay: Cell growth inhibition (MTT) in the presence of 10 µM verapamil (sensitivity to MDR efflux pumps); type: cell-based, human; conditions: 10 µM verapamil (P-gp/MDR1 inhibitor)
Experimental: as §2

[14] = tested on: bovine brain tubulin; assay: Tubulin polymerization inhibition (turbidimetry); type: biochemical; conditions: for % TPI: compounds tested at 10 µM, with respect to the negative control; for IC50: concentration inhibiting 50% of microtubular protein polymerization in vitro, read-out: TPI IC50; for Tubulin polymerization inhibition (in words): 10 µM
Experimental: Microtubular protein was isolated from calf brain following the modified Shelanski method, based on temperature-dependent assembly/disassembly of tubulin [45]. The protein was stored at −80 °C, and its concentration was determined using the Bradford method before each use. Tubulin polymerization, which occurs when heating a buffered tubulin sample from 4 °C to 37 °C, is accompanied by an increase in the absorbance (at 450 nm) of the sample that was monitored by a Helios α spectrophotometer. […] Then, the temperature was adjusted to 4 °C, and the temperature being shifted to 37 °C allowed for the assembly process of tubulin. The turbidity caused by tubulin polymerization was measured by the increased absorbance at 450 nm. The increase in absorbance obtained for the control sample (without the ligand), which we considered to be 100% tubulin polymerization (0% inhibition), compared with the increase in absorbance determined for the sample containing ligands yielded the degree of tubulin polymerization inhibition (TPI), which is expressed as a percentage value. For the compounds displaying TPI values over 50% at 10 µM, the IC50 value for TPI was calculated. Measurements were performed in triplicate in two independent experiments using microtubular protein from different preparations.

Row | solubility at 72 h [4] [µg/mL] | IC50 [5] [µM] | IC50 [7] [µM] | IC50 [8] [µM] | IC50 [9] [µM] | IC50 [10] [µM] | IC50 [11] [µM] | IC50 [12] [µM] | IC50 [13] [µM] | IC50 [14] [µM] | Compound | IC50 [1] [µM] | IC50 [3] [µM] | IC50 [6] [µM] | % TPI [14] [%] | Tubulin polymerization inhibition (in words) [14] | also measured
1 | 87 (≈ 278 µM) | 2.03 | 1.41 | 3.01 | 2.07 | 2.54 | 1.88 | 1.55 | 2.93 | > 10 | COc1ccc2nc(N(Cc3ccccn3)C(C)=O)sc2c1 [Compound 19, N-(6-methoxybenzo[d]thiazol-2-yl)-N-(pyridin-2-ylmethyl)acetamide] | > 10 | 1.38 | 2.44 | 43 | – | –
2 | 93 (≈ 297 µM) | 0.911 | 0.632 | 1.62 | 1.39 | 1.52 | 0.813 | 1.03 | 1.48 | 8.1 | COc1ccc2nc(N(Cc3cccnc3)C(C)=O)sc2c1 [Compound 20, N-(6-methoxybenzo[d]thiazol-2-yl)-N-(pyridin-3-ylmethyl)acetamide] | 9.9 | 0.622 | 0.825 | 57 | – | –
3 | 165 (≈ 546 µM) | > 10 | > 10 | > 10 | > 10 | > 10 | > 10 | > 10 | > 10 | > 10 | COc1ccc2nc(N(C=O)Cc3[nH]cnc3C)sc2c1 [Compound 16, N-(6-methoxybenzo[d]thiazol-2-yl)-N-((4-methyl-1H-imidazol-5-yl)methyl)formamide] | > 10 | > 10 | > 10 | 0 | not able to inhibit tubulin polymerization | –
4 | – | > 10 | 135 | > 10 | > 10 | > 10 | > 10 | > 10 | > 10 | – | Cn1nnc2c(C(N)=O)ncn2c1=O [TMZ, temozolomide, reference compound] | > 10 | 179 | 241 | – | – | IC50 ([2]; glioblastoma cell lines): > 100 µM

Continued, compound first:

Row | Compound | solubility at 72 h [4] [µg/mL] | IC50 [5] [µM] | IC50 [7] [µM] | IC50 [8] [µM] | IC50 [9] [µM] | IC50 [10] [µM] | IC50 [11] [µM] | IC50 [12] [µM] | IC50 [13] [µM] | IC50 [14] [µM] | IC50 [1] [µM] | IC50 [3] [µM] | IC50 [6] [µM] | % TPI [14] [%] | Tubulin polymerization inhibition (in words) [14] | also measured
5 | COc1ccc2nc(N(C=O)Cc3ccccn3)sc2c1 [Compound 13, N-(6-methoxybenzo[d]thiazol-2-yl)-N-(pyridin-2-ylmethyl)formamide] | 90 (≈ 301 µM) | 0.221 | 0.254 | 0.423 | 0.315 | 0.557 | 0.321 | 0.331 | 0.54 | 5 | 9.31 | 0.195 | 0.327 | 80 | – | IC50 ([2]; Homo sapiens, MCF7, glioblastoma and MCF7 cells): ~0.2 µM; IC50 ([2]; all the cell lines): 0.3 to 0.5 µM
6 | CCNC(=O)N(Cc1[nH]cnc1C)c1nc2ccc(OC)cc2s1 [Compound 10, 3-ethyl-1-(6-methoxybenzo[d]thiazol-2-yl)-1-((4-methyl-1H-imidazol-5-yl)methyl)-urea] | 178 (≈ 515 µM) | > 10 | > 10 | > 10 | > 10 | > 10 | > 10 | > 10 | > 10 | > 10 | > 10 | > 10 | > 10 | 0 | not able to inhibit tubulin polymerization | –
7 | COc1ccc2nc(NCc3ccccn3)sc2c1 [Compound 1, 6-methoxy-N-(pyridin-2-ylmethyl)benzo[d]thiazol-2-amine] | 48 (≈ 177 µM) | 1.53 | 1.61 | 2.11 | 1.52 | 3.51 | 2.4 | 1.78 | 3.47 | > 10 | > 10 | 2.17 | 2.4 | – | – | IC50 ([2]; HeLa, HepG2, MCF7, and U87MG): ~1 µM; IC50 ([2]; the rest of the tumor cell lines (other than HeLa, HepG2, MCF7, U87MG)): 2 to 3 µM
8 | COc1ccc2nc(NCc3[nH]cnc3C)sc2c1 [Compound 4, 6-methoxy-N-((4-methyl-1H-imidazol-5-yl)methyl)benzo[d]thiazol-2-amine] | 86 (≈ 313 µM) | > 10 | > 10 | > 10 | > 10 | > 10 | > 10 | 9.33 | > 10 | > 10 | > 10 | > 10 | > 10 | 0 | not able to inhibit tubulin polymerization | –
9 | CCNC(=O)N(Cc1ccccn1)c1nc2ccc(OC)cc2s1 [Compound 7, 3-ethyl-1-(6-methoxybenzo[d]thiazol-2-yl)-1-(pyridin-2-ylmethyl)urea] | 98 (≈ 286 µM) | 0.251 | 0.062 | 0.33 | 0.247 | 0.303 | 0.198 | 0.275 | 0.315 | 4.2 | 8.81 | 0.096 | 0.125 | 87 | – | IC50 ([2]; the rest of the cell lines (other than glioblastoma U87MG and GL261)): 0.1 to 0.3 µM
10 | CCNC(=O)N(Cc1ccc2ccccc2c1)c1nc2ccc(OC)cc2s1 [Compound 12, 3-ethyl-1-(6-methoxybenzo[d]thiazol-2-yl)-1-(naphthalen-2-ylmethyl)urea] | < 9 | > 10 | > 10 | > 10 | > 10 | > 10 | > 10 | > 10 | > 10 | > 10 | > 10 | > 10 | > 10 | 0 | not able to inhibit tubulin polymerization | –
